Assay results: the kinase profiling compilation of Christmann-Franck et al. (2016)

What was measured:
Experiment in all cases: KINOMEscan competition binding
Conditions in all cases: compound 10.0 µM
[1] = target: AURKA (human) (UniProt O14965)
[2] = target: AURKB (human) (UniProt Q96GD4)
[3] = target: BLK (human) (UniProt P51451)
[4] = target: BRSK2 (human) (UniProt Q8IWQ3)
[5] = target: CDK5 (human) (UniProt Q00535)
[6] = target: CHEK1 (human) (UniProt O14757)
[7] = target: CSNK1G1 (human) (UniProt Q9HCP0)
[8] = target: CSNK2A2 (human) (UniProt P19784)
[9] = target: DAPK1 (human) (UniProt P53355)
[10] = target: DDR2 (human) (UniProt Q16832)
[11] = target: DYRK2 (human) (UniProt Q92630)
[12] = target: EIF2AK1 (human) (UniProt Q9BQI3)
[13] = target: EPHB4 (human) (UniProt P54760)
[14] = target: HUNK (human) (UniProt P57058)
[15] = target: IGF1R (human) (UniProt P08069)
[16] = target: INSRR (human) (UniProt P14616)
[17] = target: LATS2 (human) (UniProt Q9NRM7)
[18] = target: LCK (human) (UniProt P06239)
[19] = target: MAP4K1 (human) (UniProt Q92918)
[20] = target: MAPK10 (human) (UniProt P53779)
[21] = target: MAPK12 (human) (UniProt P53778)
[22] = target: MAPK9 (human) (UniProt P45984)
[23] = target: MAPKAPK2 (human) (UniProt P49137)
[24] = target: MST4 (human) (UniProt Q9P289)
[25] = target: MYO3A (human) (UniProt Q8NEV4)
[26] = target: NEK11 (human) (UniProt Q8NG66)
[27] = target: NEK3 (human) (UniProt P51956)
[28] = target: NLK (human) (UniProt Q9UBE8)
[29] = target: PIP5K1A (human) (UniProt Q99755)
[30] = target: PRKG2 (human) (UniProt Q13237)
[31] = target: RAF1 (human) (UniProt P04049)
[32] = target: SIK1 (human) (UniProt P57059)
[33] = target: SRC (human) (UniProt P12931)
[34] = target: STK3 (human) (UniProt Q13188)
[35] = target: STK38L (human) (UniProt Q9Y2H1)
[36] = target: TAOK2 (human) (UniProt Q9UL54)
[37] = target: TAOK3 (human) (UniProt Q9H2K8)
[38] = target: TEK (human) (UniProt Q02763)
[39] = target: TNIK (human) (UniProt Q9UKE5)
[40] = target: ULK3 (human) (UniProt Q6PHR2)
[41] = target: YSK4 (human) (UniProt Q56UN5)

STK3 (human), sequence (Q13188 whole entry, looked up): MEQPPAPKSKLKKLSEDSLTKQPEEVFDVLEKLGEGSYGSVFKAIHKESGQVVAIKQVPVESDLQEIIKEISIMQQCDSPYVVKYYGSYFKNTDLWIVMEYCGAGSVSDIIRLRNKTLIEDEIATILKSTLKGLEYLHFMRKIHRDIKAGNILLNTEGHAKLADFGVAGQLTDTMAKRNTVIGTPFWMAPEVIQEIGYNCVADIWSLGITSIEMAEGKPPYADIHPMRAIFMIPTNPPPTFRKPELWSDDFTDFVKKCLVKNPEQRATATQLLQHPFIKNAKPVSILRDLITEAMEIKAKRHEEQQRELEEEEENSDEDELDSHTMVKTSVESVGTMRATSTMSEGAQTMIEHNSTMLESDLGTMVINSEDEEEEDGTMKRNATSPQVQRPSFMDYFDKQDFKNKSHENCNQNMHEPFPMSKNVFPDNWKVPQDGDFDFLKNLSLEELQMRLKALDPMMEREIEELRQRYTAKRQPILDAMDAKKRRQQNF
CSNK2A2 (human), sequence (P19784 whole entry, looked up): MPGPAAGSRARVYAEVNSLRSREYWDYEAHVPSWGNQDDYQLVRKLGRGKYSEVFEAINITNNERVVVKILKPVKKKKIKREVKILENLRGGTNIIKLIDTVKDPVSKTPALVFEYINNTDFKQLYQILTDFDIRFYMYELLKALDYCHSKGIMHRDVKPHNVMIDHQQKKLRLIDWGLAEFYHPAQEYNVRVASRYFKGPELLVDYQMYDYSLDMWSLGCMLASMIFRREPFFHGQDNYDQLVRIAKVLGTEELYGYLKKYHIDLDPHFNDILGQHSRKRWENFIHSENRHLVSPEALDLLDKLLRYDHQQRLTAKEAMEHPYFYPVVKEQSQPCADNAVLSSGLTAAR
NLK (human), sequence (Q9UBE8 whole entry, looked up): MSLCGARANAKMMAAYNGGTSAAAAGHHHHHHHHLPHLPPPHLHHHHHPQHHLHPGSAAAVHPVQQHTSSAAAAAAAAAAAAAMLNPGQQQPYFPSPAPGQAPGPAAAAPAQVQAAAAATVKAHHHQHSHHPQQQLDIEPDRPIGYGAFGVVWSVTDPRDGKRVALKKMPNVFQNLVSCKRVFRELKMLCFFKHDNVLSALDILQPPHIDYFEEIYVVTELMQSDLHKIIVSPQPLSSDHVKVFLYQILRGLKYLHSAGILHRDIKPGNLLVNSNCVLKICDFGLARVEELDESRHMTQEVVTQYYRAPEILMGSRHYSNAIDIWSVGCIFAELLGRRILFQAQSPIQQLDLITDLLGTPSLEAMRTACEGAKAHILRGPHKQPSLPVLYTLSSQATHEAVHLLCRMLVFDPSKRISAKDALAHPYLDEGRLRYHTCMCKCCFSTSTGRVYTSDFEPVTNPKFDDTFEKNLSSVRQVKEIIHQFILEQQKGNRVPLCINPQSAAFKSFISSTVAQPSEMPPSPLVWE
DYRK2 (human), sequence (Q92630 whole entry, looked up): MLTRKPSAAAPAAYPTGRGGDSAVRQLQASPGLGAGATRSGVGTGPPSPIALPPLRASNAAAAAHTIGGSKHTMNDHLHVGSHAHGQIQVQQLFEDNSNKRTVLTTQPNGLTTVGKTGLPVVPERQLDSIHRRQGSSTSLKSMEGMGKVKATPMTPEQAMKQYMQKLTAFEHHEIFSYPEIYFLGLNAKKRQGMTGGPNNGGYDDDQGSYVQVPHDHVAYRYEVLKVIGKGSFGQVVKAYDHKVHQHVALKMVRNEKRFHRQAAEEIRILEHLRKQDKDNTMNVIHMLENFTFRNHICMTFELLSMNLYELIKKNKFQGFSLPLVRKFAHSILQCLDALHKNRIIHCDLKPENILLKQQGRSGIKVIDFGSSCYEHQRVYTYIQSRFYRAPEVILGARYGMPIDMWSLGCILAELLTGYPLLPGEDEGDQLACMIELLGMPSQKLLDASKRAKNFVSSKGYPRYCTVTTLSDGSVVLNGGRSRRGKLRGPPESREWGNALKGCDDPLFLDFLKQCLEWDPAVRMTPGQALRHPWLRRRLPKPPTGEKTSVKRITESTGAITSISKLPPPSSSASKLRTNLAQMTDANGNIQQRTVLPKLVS
MAPK10 (human), sequence (P53779 whole entry, looked up): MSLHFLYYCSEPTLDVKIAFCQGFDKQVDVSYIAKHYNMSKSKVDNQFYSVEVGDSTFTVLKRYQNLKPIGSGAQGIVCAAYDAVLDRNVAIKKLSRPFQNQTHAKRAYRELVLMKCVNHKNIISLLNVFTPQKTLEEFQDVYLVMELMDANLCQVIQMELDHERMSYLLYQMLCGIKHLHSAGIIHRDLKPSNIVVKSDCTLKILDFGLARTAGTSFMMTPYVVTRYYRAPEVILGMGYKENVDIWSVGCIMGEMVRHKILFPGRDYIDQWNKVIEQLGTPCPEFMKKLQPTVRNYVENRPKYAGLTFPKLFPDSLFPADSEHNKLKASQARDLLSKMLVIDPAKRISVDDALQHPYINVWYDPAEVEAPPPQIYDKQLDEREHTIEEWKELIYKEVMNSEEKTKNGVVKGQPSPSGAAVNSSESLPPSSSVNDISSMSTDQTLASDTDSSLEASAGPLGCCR
MAPK9 (human), sequence (P45984 whole entry, looked up): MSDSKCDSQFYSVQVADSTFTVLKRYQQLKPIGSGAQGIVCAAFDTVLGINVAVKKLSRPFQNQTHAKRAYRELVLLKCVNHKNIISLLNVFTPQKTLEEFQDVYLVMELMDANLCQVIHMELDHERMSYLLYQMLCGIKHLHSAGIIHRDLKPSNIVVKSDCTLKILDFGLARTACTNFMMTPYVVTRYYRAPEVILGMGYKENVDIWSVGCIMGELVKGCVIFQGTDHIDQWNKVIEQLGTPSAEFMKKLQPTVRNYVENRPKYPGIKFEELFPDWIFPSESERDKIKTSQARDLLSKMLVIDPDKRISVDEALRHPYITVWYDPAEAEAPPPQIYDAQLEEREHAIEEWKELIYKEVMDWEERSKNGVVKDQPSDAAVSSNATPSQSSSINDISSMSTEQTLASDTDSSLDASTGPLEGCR
SIK1 (human), sequence (P57059 whole entry, looked up): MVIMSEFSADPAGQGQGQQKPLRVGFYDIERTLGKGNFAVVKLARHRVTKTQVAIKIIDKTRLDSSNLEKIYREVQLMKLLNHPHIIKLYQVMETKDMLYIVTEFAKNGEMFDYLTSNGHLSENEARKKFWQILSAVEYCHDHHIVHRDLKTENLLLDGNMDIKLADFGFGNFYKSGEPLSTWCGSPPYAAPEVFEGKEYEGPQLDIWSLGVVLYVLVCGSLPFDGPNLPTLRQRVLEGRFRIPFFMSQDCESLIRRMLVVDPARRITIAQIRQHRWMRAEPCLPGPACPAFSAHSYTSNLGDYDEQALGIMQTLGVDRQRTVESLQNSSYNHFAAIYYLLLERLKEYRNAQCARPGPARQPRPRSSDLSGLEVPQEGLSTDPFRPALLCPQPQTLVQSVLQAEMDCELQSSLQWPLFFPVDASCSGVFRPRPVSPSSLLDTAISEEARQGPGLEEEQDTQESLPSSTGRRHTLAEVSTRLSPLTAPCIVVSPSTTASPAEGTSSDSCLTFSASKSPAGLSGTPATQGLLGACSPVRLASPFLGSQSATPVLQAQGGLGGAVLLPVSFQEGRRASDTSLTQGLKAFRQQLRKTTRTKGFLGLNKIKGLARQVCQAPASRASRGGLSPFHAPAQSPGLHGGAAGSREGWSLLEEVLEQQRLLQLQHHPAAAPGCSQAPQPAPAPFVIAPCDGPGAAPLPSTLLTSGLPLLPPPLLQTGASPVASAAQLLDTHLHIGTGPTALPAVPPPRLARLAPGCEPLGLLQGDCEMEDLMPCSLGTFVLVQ
PRKG2 (human), sequence (Q13237 whole entry, looked up): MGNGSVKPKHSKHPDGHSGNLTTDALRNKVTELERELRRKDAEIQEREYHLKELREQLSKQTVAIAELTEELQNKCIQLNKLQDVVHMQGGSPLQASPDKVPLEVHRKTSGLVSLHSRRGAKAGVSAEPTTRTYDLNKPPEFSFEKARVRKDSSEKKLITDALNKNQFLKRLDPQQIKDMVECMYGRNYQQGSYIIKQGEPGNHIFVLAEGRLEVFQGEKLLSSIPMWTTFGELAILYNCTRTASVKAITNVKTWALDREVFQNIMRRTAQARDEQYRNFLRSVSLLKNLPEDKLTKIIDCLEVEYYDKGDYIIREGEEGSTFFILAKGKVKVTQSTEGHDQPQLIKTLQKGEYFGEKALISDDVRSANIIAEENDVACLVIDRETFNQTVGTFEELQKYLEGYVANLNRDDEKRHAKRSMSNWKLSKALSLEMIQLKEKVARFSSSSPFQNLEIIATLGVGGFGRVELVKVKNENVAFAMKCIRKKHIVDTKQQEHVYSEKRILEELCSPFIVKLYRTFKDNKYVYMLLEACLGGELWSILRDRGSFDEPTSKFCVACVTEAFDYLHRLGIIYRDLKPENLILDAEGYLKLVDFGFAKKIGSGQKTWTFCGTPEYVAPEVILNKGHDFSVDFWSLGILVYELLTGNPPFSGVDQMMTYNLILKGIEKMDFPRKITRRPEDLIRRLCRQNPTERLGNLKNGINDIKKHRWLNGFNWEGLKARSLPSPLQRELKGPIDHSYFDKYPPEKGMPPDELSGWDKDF
STK38L (human), sequence (Q9Y2H1 whole entry, looked up): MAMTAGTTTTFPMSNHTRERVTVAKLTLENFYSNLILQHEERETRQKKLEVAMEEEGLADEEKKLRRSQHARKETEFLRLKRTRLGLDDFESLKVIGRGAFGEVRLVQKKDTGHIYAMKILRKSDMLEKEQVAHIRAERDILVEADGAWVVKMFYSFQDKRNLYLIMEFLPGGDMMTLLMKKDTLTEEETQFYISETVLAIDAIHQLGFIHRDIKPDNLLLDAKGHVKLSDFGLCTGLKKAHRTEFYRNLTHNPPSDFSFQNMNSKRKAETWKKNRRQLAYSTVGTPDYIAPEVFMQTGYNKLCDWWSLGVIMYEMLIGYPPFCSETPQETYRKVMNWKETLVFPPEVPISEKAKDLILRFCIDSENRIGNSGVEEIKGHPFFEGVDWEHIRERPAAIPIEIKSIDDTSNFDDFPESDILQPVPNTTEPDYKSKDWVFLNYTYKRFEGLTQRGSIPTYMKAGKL

Question: With `O=c1[nH]c2ccccc2n1C1CCN(Cc2ccc(-c3nc4cc5[nH]cnc5cc4nc3-c3ccccc3)cc2)CC1` as the compound, how does the kinase still bound, per cent of control [1] read?
Answer: 68%

Question: And the kinase still bound, per cent of control [2]?
Answer: 91%

Question: And the kinase still bound, per cent of control [3]?
Answer: 76%

Question: What about the kinase still bound, per cent of control [4] of the same compound?
Answer: 88%

Question: What about the kinase still bound, per cent of control [5] of the same compound?
Answer: 100%

Question: And the kinase still bound, per cent of control [6]?
Answer: 100%

Question: And the kinase still bound, per cent of control [7]?
Answer: 100%

Question: And the kinase still bound, per cent of control [8]?
Answer: 92%

Question: What about the kinase still bound, per cent of control [9] of the same compound?
Answer: 100%

Question: And the kinase still bound, per cent of control [10]?
Answer: 76%

Question: What about the kinase still bound, per cent of control [11] of the same compound?
Answer: 88%

Question: What about the kinase still bound, per cent of control [12] of the same compound?
Answer: 87%

Question: And the kinase still bound, per cent of control [13]?
Answer: 100%

Question: What about the kinase still bound, per cent of control [14] of the same compound?
Answer: 72%

Question: What about the kinase still bound, per cent of control [15] of the same compound?
Answer: 100%

Question: And the kinase still bound, per cent of control [16]?
Answer: 100%

Question: And the kinase still bound, per cent of control [17]?
Answer: 82%

Question: What about the kinase still bound, per cent of control [18] of the same compound?
Answer: 72%

Question: What about the kinase still bound, per cent of control [19] of the same compound?
Answer: 51%

Question: And the kinase still bound, per cent of control [20]?
Answer: 71%

Question: What about the kinase still bound, per cent of control [21] of the same compound?
Answer: 98%

Question: What about the kinase still bound, per cent of control [22] of the same compound?
Answer: 91%

Question: And the kinase still bound, per cent of control [23]?
Answer: 100%

Question: And the kinase still bound, per cent of control [24]?
Answer: 100%

Question: And the kinase still bound, per cent of control [25]?
Answer: 100%

Question: What about the kinase still bound, per cent of control [26] of the same compound?
Answer: 100%

Question: What about the kinase still bound, per cent of control [27] of the same compound?
Answer: 84%

Question: What about the kinase still bound, per cent of control [28] of the same compound?
Answer: 87%

Question: What about the kinase still bound, per cent of control [29] of the same compound?
Answer: 88%

Question: And the kinase still bound, per cent of control [30]?
Answer: 91%

Question: What about the kinase still bound, per cent of control [31] of the same compound?
Answer: 99%

Question: What about the kinase still bound, per cent of control [32] of the same compound?
Answer: 100%

Question: What about the kinase still bound, per cent of control [33] of the same compound?
Answer: 81%

Question: And the kinase still bound, per cent of control [34]?
Answer: 100%

Question: And the kinase still bound, per cent of control [35]?
Answer: 82%

Question: And the kinase still bound, per cent of control [36]?
Answer: 85%

Question: And the kinase still bound, per cent of control [37]?
Answer: 84%

Question: What about the kinase still bound, per cent of control [38] of the same compound?
Answer: 85%

Question: What about the kinase still bound, per cent of control [39] of the same compound?
Answer: 97%

Question: And the kinase still bound, per cent of control [40]?
Answer: 80%

Question: What about the kinase still bound, per cent of control [41] of the same compound?
Answer: 75%
